Series [1] in a line: Caco2 permeability (bi-directional). It counts as in vitro ADME, human. As to conditions: human, pH 7.4; for Papp A→B at 1 h, 10 µM: Caco-2, apical to basolateral, read-out: Papp (A2B); for efflux ratio at 1 h, 10 µM: Caco-2, ratio of PappB>A/PappA>B. The method, boiled down: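 Bidirectional transport across Caco-2 monolayers was run for 1 h at 37 °C with shaking, with 50 μM Lucifer Yellow in the donor to check monolayer integrity (acceptance ≤100 nm/s). Apical and basal compound levels were measured by LC-MS/MS, and efflux ratio was taken as PappB>A/PappA>B.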
Background: Caco-2 cells form a polarised layer with tight junctions and transporters.

In series [2] the test system is MMP13 in SW1353 cells. Briefly: OSM/IL-1β signaling assay (MMP13 levels in SW1353 cells).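 Also: secreted MMP13 captured by antibody, activated with APMA and its activity read by fluorescence, inhibition scaled between vehicle-treated triggered wells (0%) and untriggered wells (100%).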 Format: cell-based. As to conditions: Homo sapiens; SW1353 cells, OSM and IL-1β triggered, MMP13 levels 48 hours after triggering; read-out: MMP13 EC50.
A short description of series [3]: Microsomal stability, rat liver microsomes. Format: in vitro ADME. The note with it: percentage of compound remaining after 60 minutes, 3 μM compound. The method, boiled down: (§1)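 Compound was incubated with liver microsomes plus an NADP+/glucose-6-phosphate/G6PDH/MgCl2 regenerating system at 37°C for 1 h. Reactions were stopped 1:1 with MeOH or ACN and analysed by LCMS.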
A general note: Microsomes from liver hold many membrane-bound enzymes, among them those of drug oxidation.

Series [4] relates to JAK-STAT signalling in HeLa cells. Briefly: JAK-STAT signalling assay (OSM-triggered pSTAT1(2)-luciferase reporter in HeLa cells). Format: cell-based. As to conditions: Homo sapiens; HeLa cells, OSM-triggered pSTAT1(2)-luciferase reporter; read-out: STAT signalling EC50. The method, boiled down: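 HeLa cells transiently transfected with pSTAT1(2)-luciferase reporter plus LacZ internal control, incubated overnight at 37 °C, 10% CO2, then OSM-stimulated with compound. Luciferase read by Steadylite luminescence and normalised to β-galactosidase (ONPG); percent inhibition from controls, EC50 from dose-response.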
(In general: In a reporter assay the amount or activity of a reporter protein is the signal.)

Series [5] has as its target Recombinant human JAK3 catalytic domain (Homo sapiens (Human), UniProt P52333). Description: JAK3 inhibition assay. As to conditions: semi-quantitative score. Format: biochemical.
Series [6] is described as follows: Microsomal stability, human liver microsomes. Format: in vitro ADME. The note with it: percentage of compound remaining after 60 minutes, 3 μM compound. The procedure, abridged: as §1
Series [7] has as its target Recombinant human TYK2 catalytic domain (Homo sapiens (Human), UniProt P29597). Briefly: TYK2 inhibition assay. Format: biochemical. How it is done: After 90 min at 30° C., reactions were stopped by adding of 25 μL/well of 150 mM phosphoric acid. […] Plates were washed 6 times with 300 μL per well of a 75 mM phosphoric acid solution and the bottom of the plates was sealed. 40 μL/well of Microscint-20 was added, the top of the plates was sealed and readout was performed using the Topcount (Perkin Elmer). Kinase activity was calculated by subtracting counts per minute (cpm) obtained in the presence of a positive control inhibitor (10 μM staurosporine) from cpm obtained in the presence of vehicle. The ability of a test compound to inhibit this activity was determined as: Percentage inhibition=((cpm determined for sample with test compound present−cpm determined for sample with positive control inhibitor) divided by (cpm determined in the presence of vehicle−cpm determined for sample with positive control inhibitor))*100%.
Dose dilution series were prepared for the compounds enabling the testing of dose-response effects in the TYK2 assay and the calculation of the IC50 for each compound.

For series [8], the target named is Recombinant human JAK2 catalytic domain (Homo sapiens (Human), UniProt O60674). Description: JAK2 inhibition assay. Format: biochemical. The method, boiled down:
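Radiometric kinase reactions ran for 90 min at 30 °C and were stopped with phosphoric acid, then washed and counted by scintillation. Percent inhibition was set relative to vehicle and to 10 μM staurosporine background. IC50 was derived from dose-dilution series.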

Series [9] deals with Recombinant human JAK1 catalytic domain (Homo sapiens (Human), UniProt P23458). Briefly: JAK1 inhibition assay. It counts as biochemical. The procedure, abridged: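 Radiometric assay read by scintillation counting after phosphoric-acid washes. Percent inhibition calculated from cpm relative to vehicle and 10 μM staurosporine control. IC50 derived from compound dose-dilution series.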
Recombinant human JAK1 catalytic domain, sequence (P23458 850-1154): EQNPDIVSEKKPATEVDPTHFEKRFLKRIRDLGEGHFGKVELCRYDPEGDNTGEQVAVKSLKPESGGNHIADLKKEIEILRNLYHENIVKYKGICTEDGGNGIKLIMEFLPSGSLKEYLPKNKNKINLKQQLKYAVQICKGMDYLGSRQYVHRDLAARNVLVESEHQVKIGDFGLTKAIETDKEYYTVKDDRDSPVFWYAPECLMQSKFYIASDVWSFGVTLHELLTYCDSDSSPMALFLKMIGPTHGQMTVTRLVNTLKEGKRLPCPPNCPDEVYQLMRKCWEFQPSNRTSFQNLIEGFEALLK

Read-outs that look alike come from different tables or passages of the source. A value given as a limit tells only on which side of the number the result lay.

Recombinant human JAK2 catalytic domain, sequence (O60674 808-1132): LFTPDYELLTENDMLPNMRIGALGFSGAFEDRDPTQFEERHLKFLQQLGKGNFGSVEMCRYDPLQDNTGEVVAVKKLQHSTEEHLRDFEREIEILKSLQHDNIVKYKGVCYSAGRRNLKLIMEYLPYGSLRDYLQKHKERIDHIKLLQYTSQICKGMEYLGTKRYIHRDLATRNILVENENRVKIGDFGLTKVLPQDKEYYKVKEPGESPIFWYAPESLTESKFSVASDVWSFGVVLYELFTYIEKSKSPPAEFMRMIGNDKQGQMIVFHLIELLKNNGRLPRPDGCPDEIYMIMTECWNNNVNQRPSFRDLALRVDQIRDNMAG
Recombinant human TYK2 catalytic domain, sequence (P29597 871-1187): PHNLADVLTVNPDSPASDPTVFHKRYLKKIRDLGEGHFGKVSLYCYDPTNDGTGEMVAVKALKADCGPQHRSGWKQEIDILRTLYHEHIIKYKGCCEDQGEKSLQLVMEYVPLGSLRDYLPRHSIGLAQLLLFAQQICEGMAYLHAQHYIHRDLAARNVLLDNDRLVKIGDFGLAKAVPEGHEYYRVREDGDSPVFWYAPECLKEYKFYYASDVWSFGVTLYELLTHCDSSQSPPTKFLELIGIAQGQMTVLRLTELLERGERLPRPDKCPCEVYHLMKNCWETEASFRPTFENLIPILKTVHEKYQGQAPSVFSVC
Recombinant human JAK3 catalytic domain, sequence (P52333 781-1124): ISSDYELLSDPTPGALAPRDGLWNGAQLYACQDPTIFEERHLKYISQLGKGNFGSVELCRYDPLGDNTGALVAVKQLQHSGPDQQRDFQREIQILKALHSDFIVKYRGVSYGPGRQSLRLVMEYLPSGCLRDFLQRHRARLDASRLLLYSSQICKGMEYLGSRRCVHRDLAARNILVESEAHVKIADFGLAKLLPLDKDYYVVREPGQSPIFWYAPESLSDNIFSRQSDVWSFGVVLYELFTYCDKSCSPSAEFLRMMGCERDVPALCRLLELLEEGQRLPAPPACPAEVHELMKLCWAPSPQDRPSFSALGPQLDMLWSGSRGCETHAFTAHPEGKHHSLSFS

As to `O=C(Nc1nc2cccc(-c3ccc(OC4CCCC4)cc3)n2n1)C1CC1` [Compound 40, N-(5-(4-(cyclopentyloxy)phenyl)-[1,2,4]triazolo[1,5-a]pyridin-2-yl)cyclopropanecarboxamide], the Papp A→B at 1 h, 10 µM in series [1] was 44.9 ×10⁻⁶ cm/s. Besides, in series [1], the efflux ratio (usually a quotient of directional permeabilities that is used to spot active efflux) at 1 h, 10 µM came out at 0.67. Further, the EC50 – broadly, the concentration that produces a half-maximal response – in series [2] fell in the range of 0.001 to 0.5 µM; in series [4], 0.101 to 0.5 µM. In [3], the “Microsomal Stability Rat (%)” value is “* (* 0-25)”. In addition, the IC50 (in general, the concentration that gives 50% inhibition) in series [5] is 0.501 to 1 µM; in series [7] (semi-quantitative score) it was 0.501 to 1 µM; in series [8] (semi-quantitative score), under 0.1 µM; in [9] (semi-quantitative score), under 0.1 µM. Further, the “Microsomal Stability Human (%)” value in series [6] is listed as “* (* 0-25)”.
In the case of `Cc1cc(COc2ccc(-c3cccc4nc(NC(=O)C5CC5)nn34)cc2)nn1C` [Compound 62], the EC50 in series [2] and in series [4] was over 1 µM in each case. Moreover, the “Microsomal Stability Rat (%)” value in series [3] is given as “* (* 0-25)”. Also, the IC50 was 0.101 to 0.5 µM in [5], over 1 µM in [7] (semi-quantitative score), under 0.1 µM in series [8] (semi-quantitative score) and under 0.1 µM in series [9] (semi-quantitative score). For the same molecule, the “Microsomal Stability Human (%)” value in series [6] is on record as “** (** 26-50)”.
Take `O=C(NCc1ccccc1)c1ccc(-c2cccc3nc(NC(=O)C4CC4)nn23)cc1` [Compound 56, N-benzyl-4-(2-(cyclopropanecarboxamido)-[1,2,4]triazolo[1,5-a]pyridin-5-yl)benzamide]: the EC50 in series [2] and in series [4] was over 1 µM throughout. The “Microsomal Stability Rat (%)” value in series [3] is reported as “* (* 0-25)”. In addition, the IC50 in [5] is over 1 µM; in series [7] (semi-quantitative score) it was over 1 µM; in series [8] (semi-quantitative score) it was 0.101 to 0.5 µM; in series [9] (semi-quantitative score), under 0.1 µM. In addition, the “Microsomal Stability Human (%)” value in [6] is on record as “**** (**** 76-100)”.
Turning to `O=C(Nc1nc2cccc(-c3ccc(Oc4ccccc4)cc3)n2n1)C1CC1` [Compound 46, N-(5-(4-phenoxyphenyl)-[1,2,4]triazolo[1,5-a]pyridin-2-yl)cyclopropanecarboxamide], the EC50 in series [2] and in series [4] was over 1 µM throughout. Further, in series [3], the “Microsomal Stability Rat (%)” value was “* (* 0-25)”. Moreover, the IC50 in series [5] was over 1 µM; in series [7] (semi-quantitative score) it was over 1 µM; in series [8] (semi-quantitative score) it was 0.101 to 0.5 µM; in series [9] (semi-quantitative score) it was under 0.1 µM. In addition, in series [6], the “Microsomal Stability Human (%)” value is given as “* (* 0-25)”.
In the case of `O=C(Nc1nc2cccc(-c3ccc(C(=O)N4CCc5ccccc5C4)cc3)n2n1)C1CC1` [Compound 58], the figures for the EC50 in series [2] and in series [4] were 0.501 to 1 µM and over 1 µM, respectively. Besides, in series [3], the “Microsomal Stability Rat (%)” value is “* (* 0-25)”. Further, the IC50 in series [5] is over 1 µM; in series [7] (semi-quantitative score) it was over 1 µM; in series [8] (semi-quantitative score) it was 0.101 to 0.5 µM; in series [9] (semi-quantitative score), under 0.1 µM. In series [6], the “Microsomal Stability Human (%)” value was “* (* 0-25)”.
With `O=C(Nc1nc2cccc(-c3ccc(NS(=O)(=O)c4ccccc4F)cc3)n2n1)C1CC1` [Compound 54, N-(5-(4-(2-fluorophenylsulfonamido)phenyl)-[1,2,4]triazolo[1,5-a]pyridin-2-yl)cyclopropanecarboxamide], the EC50 in series [2] and in series [4] was over 1 µM in each case. The “Microsomal Stability Rat (%)” value in series [3] is “*** (*** 51-75)”. In addition, the IC50 in [5] was over 1 µM; in series [7] (semi-quantitative score), 0.101 to 0.5 µM; in [8] (semi-quantitative score), under 0.1 µM; in series [9] (semi-quantitative score), under 0.1 µM. Further, in series [6], the “Microsomal Stability Human (%)” value is recorded as “**** (**** 76-100)”.
Consider `O=C(N[C@H]1CCN(Cc2ccccc2)C1)c1ccc(-c2cccc3nc(NC(=O)C4CC4)nn23)cc1` [Compound 119, (S)-N-(1-benzylpyrrolidin-3-yl)-4-(2-(cyclopropanecarboxamido)-[1,2,4]triazolo[1,5-a]pyridin-5-yl)benzamide], for which the EC50 in series [2] and in [4] was over 1 µM throughout. Besides, the “Microsomal Stability Rat (%)” value in series [3] is given as “** (** 26-50)”. The IC50 in [5] was over 1 µM; in [7] (semi-quantitative score), over 1 µM; in series [8] (semi-quantitative score), 0.101 to 0.5 µM; in series [9] (semi-quantitative score) it was under 0.1 µM. For the same molecule, in [6], the “Microsomal Stability Human (%)” value was “* (* 0-25)”.
As to `O=C(Nc1nc2cccc(-c3ccc(NS(=O)(=O)c4ccc(F)cc4)cc3)n2n1)C1CC1` [Compound 33, N-(5-(4-(4-fluorophenylsulfonamido)phenyl)-[1,2,4]triazolo[1,5-a]pyridin-2-yl)cyclopropanecarboxamide], the EC50 in series [2] and in series [4] was over 1 µM in each case. Besides, in series [3], the “Microsomal Stability Rat (%)” value was “** (** 26-50)”. The IC50 in [5] was over 1 µM; in series [7] (semi-quantitative score), 0.101 to 0.5 µM; in [8] (semi-quantitative score), under 0.1 µM; in [9] (semi-quantitative score), under 0.1 µM. For the same molecule, the “Microsomal Stability Human (%)” value in series [6] is given as “**** (**** 76-100)”.
Turning to `O=C(COc1ccc(-c2cccc3nc(NC(=O)C4CC4)nn23)cc1)Nc1cccc(F)c1` [Compound 116, N-(5-(4-(2-(3-fluorophenylamino)-2-oxoethoxy)phenyl)-[1,2,4]triazolo[1,5-a]pyridin-2-yl)cyclopropanecarboxamide], the EC50 in series [2] and in series [4] was over 1 µM in each case. The “Microsomal Stability Rat (%)” value in series [3] was “* (* 0-25)”. The IC50 was 0.501 to 1 µM in series [5], over 1 µM in series [7] (semi-quantitative score), 0.101 to 0.5 µM in series [8] (semi-quantitative score) and under 0.1 µM in [9] (semi-quantitative score). The “Microsomal Stability Human (%)” value in series [6] is given as “*** (*** 51-75)”.
For the molecule `Cc1noc(C)c1COc1ccc(-c2cccc3nc(NC(=O)C4CC4)nn23)cc1` [Compound 49, N-(5-(4-((3,5-dimethylisoxazol-4-yl)methoxy)phenyl)-[1,2,4]triazolo[1,5-a]pyridin-2-yl)cyclopropanecarboxamide], the EC50 in series [2] and in series [4] was over 1 µM each time. In [3], the “Microsomal Stability Rat (%)” value is recorded as “* (* 0-25)”. Besides, the IC50 in series [5] was over 1 µM; in series [7] (semi-quantitative score), over 1 µM; in series [8] (semi-quantitative score), 0.101 to 0.5 µM; in series [9] (semi-quantitative score) it was under 0.1 µM. Also, the “Microsomal Stability Human (%)” value in series [6] is “* (* 0-25)”.
As for `O=C(Nc1nc2cccc(-c3ccc(OCc4ccccc4)nc3)n2n1)C1CC1` [Compound 57, Cyclopropanecarboxylic Acid [5-(6-benzyloxy-pyridin-3-yl)-[1,2,4]triazolo[1,5-a]pyridin-2-yl]-amide], the EC50 in series [2] and in series [4] was over 1 µM in each case. In addition, the “Microsomal Stability Rat (%)” value in series [3] is listed as “** (** 26-50)”. Further, the half-maximal inhibitory concentration (IC50) was 0.501 to 1 µM in series [5], over 1 µM in series [7], under 0.1 µM in series [8] and under 0.1 µM in series [9]. The “Microsomal Stability Human (%)” value in series [6] is listed as “** (** 26-50)”.
In the case of `Cc1cc(COc2ccc(-c3cccc4nc(NC(=O)C5CC5)nn34)cc2)n(C)n1` [Compound 50], the EC50 in series [2] and in series [4] was over 1 µM in each case. In series [3], the “Microsomal Stability Rat (%)” value is “* (* 0-25)”. Also, the IC50 was 0.101 to 0.5 µM in series [5], over 1 µM in series [7] (semi-quantitative score), under 0.1 µM in [8] (semi-quantitative score) and under 0.1 µM in series [9] (semi-quantitative score). The “Microsomal Stability Human (%)” value in [6] is on record as “** (** 26-50)”.
With `O=C(Nc1nc2cccc(-c3ccc(C(=O)N4CCC(O)(Cc5ccccc5)CC4)cc3)n2n1)C1CC1` [Compound 156, N-(5-(4-(4-benzyl-4-hydroxypiperidine-1-carbonyl)phenyl)-[1,2,4]triazolo[1,5-a]pyridin-2-yl)cyclopropanecarboxamide], in series [1], the Papp A→B at 1 h, 10 µM stood at 4.1 ×10⁻⁶ cm/s. In series [1], the efflux ratio at 1 h, 10 µM was found to be 11.5. In addition, the “Microsomal Stability Rat (%)” value in series [3] is on record as “** (** 26-50)”. For the same molecule, the EC50 in [4] lay within 0.101 to 0.5 µM. The IC50 was 0.101 to 0.5 µM in series [5], 0.101 to 0.5 µM in [7] (semi-quantitative score), under 0.1 µM in [8] (semi-quantitative score) and under 0.1 µM in [9] (semi-quantitative score). In series [6], the “Microsomal Stability Human (%)” value was “** (** 26-50)”.
